According to EP2241565A1, “Aurora kinase inhibitors compounds” (Universität Leipzig, priority 2009, dated 2010):
Entries after “also recorded” stand apart in the source; their conditions may differ.

Experiments:
Aurora A = target: T1, Aurora A (Homo sapiens, UniProt O14965); experiment: In vitro Aurora A kinase assay (Invitrogen Z'-lyte kinase assay kit, Ser/Thr 1 peptide); format: biochemical; details: for IC50: 10 µM ATP; for selectivity for Aurora A against other kinases: versus Aurora B and receptor-tyrosine kinases
T1 construct: made in house
T1 sequence (O14965 1-403): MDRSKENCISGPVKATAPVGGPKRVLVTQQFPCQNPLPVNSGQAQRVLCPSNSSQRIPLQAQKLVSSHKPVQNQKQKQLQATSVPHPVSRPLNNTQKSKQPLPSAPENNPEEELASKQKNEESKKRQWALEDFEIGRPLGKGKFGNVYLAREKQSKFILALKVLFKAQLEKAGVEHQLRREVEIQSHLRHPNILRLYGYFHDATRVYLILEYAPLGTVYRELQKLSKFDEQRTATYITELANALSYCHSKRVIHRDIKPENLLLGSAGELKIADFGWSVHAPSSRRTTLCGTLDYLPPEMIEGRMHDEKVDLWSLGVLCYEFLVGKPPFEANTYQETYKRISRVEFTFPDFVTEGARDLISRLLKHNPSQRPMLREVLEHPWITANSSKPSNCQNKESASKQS
Description: (§1) The IC50 for the different compounds was determined with Invitrogen Z'-Iyte kinase assay kit Ser/Thr 1 peptide PV3174 following the manufacturer's instructions. […] This amount was then used in subsequent assay steps.
(§2) Compounds were prepared in 384-well plates (Greiner 384-well PP 781280) at a highest concentration of 400 µM (in 4% DMSO) and then serially diluted in 2-fold steps by hand, keeping the DMSO percentage constant. 1.25 µl of compound solution was subsequently transferred 1:1 to a 384-well assay plate (Greiner 384-well ProxiPlate Plus F 6008260) for screening at a highest concentration in the final assay of 100 µM (in 1% DMSO).
In the first step, 2.5 µl of a solution containing 8 nM Aurora A (batch S74, prepared in-house at EMBL) or 40 nM Aurora B (Invitrogen PV3970) and 4 µM Ser/Thr peptide 1 (Invitrogen PV3174) was added to each well, followed by 1.25 µl of the respective ATP solution (40 µM for Aurora A, 256 µM for Aurora B). The final 5 µl reaction volume consisted of 4 nM Aurora A or 20 nM Aurora B, 2 µM Ser/Thr 1 peptide, 50 mM HEPES pH 7.5, 0.01 % BRIJ-35, 10 mM MgCl2, and 1 mM EGTA, in addition to 10 µM or 64 µM ATP (for Aurora A and Aurora B, respectively). […] The plates were then spun down at 1000 rpm for 1 min, followed by incubation at rt for 1 h. In the second step, 2.5 µl of Development solution (Development A reagent diluted 1:2048 in development buffer) was added to each well, followed again by centrifugation at 1000 rpm for 1 min and subsequent incubation at rt for 1 h. In the final step, the reaction in each well was stopped by the addition of 2.5 µl Stop reagent, followed by a brief centrifugation step and immediate readout (PerkinElmer EnVision HTS; ex. 405 nm, coumarin em. 450 nm, fluorescein em. 535 nm).
Percentage phosphorylation was calculated using 0% and 100% phosphorylation controls. The former wells contained 1.25 µl DMSO (4%), 1.25 µl buffer (as above), and 2.5 µl of a 4 µM Ser/Thr 1 peptide solution (without kinase), while in the latter the peptide solution was replaced by a 4 µM solution of a supplied phosphopeptide. The action of the development reagent was assessed using protease controls (standard wells with and without development solution added in step two).
The [coumarin emission/fluorescein emission] ratio was used together with the min. and max. signals at the two wavelengths to yield percentage phosphorylation, from which inhibition was derived (according to manufacturer's instructions). Calculated inhibition values were then fitted to 11-point variable slope sigmoidal dose-response curves using GraphPad Prism software, yielding the compound IC50s.

[1] = test system: histone H3 phosphorylation on Ser 10; experiment: Western Blot analysis of histone H3 phosphorylation in mitotic cells; format: cell-based, human; details: mitotic HeLa cells synchronized with nocodazole, treated 20 h, any of the concentrations tested
Description: For Western Blot analysis of HH3 phosphorylation levels in mitosis HeLa cells were arrested with 2 mM thymidine for 18 h, released into fresh medium for 6 h, and blocked with 2 µM nocodazole for 16 h. DMSO or the different compounds were added 1 h after thymidine release. Mitotic cells were shaken off and lysed in 50 mM Tris pH 6,8- 2% SDS. Samples were sonicated and boiled. 30 µg protein extract (as determined by Bradford assay, Bio-Rad protein assay) was loaded on SDS-PAGE, transferred to a nitrocellulose membrane and blotted with anti-phospho HH3 (Upstate), anti-Aurora A and anti-tubulin antibodies (Sigma, DM1A).

Aurora B = target: T2, Aurora B (Homo sapiens, UniProt Q96GD4); experiment: In vitro Aurora B kinase assay (Invitrogen Z'-lyte kinase assay kit, Ser/Thr 1 peptide); format: biochemical; details: 64 µM ATP
T2 construct: purchased Invitrogen PV3970
Description: as §1, §2
In the first step, 2.5 µl of a solution containing 8 nM Aurora A (batch S74, prepared in-house at EMBL) or 40 nM Aurora B (Invitrogen PV3970) and 4 µM Ser/Thr peptide 1 (Invitrogen PV3174) was added to each well, followed by 1.25 µl of the respective ATP solution (40 µM for Aurora A, 256 µM for Aurora B). […] In the final step, the reaction in each well was stopped by the addition of 2.5 µl Stop reagent, followed by a brief centrifugation step and immediate readout (PerkinElmer EnVision HTS; ex. 405 nm, coumarin em. 450 nm, fluorescein em. 535 nm).
Percentage phosphorylation was calculated using 0% and 100% phosphorylation controls. […]

HeLa cells = experiment: Flow cytometry (FACS) DNA content / cell cycle profile; format: cell-based, human; details: 24 h; for % of cells 2<n<4 / % of cells 2n / % of cells 4n / % of cells <2n / % of cells >4n: HeLa cells; for effect on DNA content / distribution of cells in the cell cycle stages: ZM1 2 µM, (A) and (C) increasing concentrations
Description: Adherent HeLa cells were routinely passaged and maintained in D-MEM medium supplemented with 10% Fetal Bovine Serum (FBS), 1% Penicillin/Streptomycin and 2 mM L-Glutamine. The cells were cultured at 37 °C; 5% CO2. hTERT-RPE1 cells were grown in DMEM with 10% fetal bovine serum. HeLa cells constitutively expressing green fluorescent protein-conjugated Histone H2B and mRed fluorescent protein-conjugated α-tubulin were maintained in D-MEM medium supplemented with 10% Fetal Bovine Serum (FBS), 1% Penicillin/Streptomycin, 2 mM L-Glutamine and 0.5 µg/mL Puromycin and cultured at 37 °C; 5% CO2.
After treatment, FACS analysis was performed on a BD FACSCanto™ Flow Cytometer (Cat.No. 335860 BD Biosciences) using FACSDiva Software. Cells were trypsinized, washed wish PBS and fixed overnight in EtOH (-20°C). After washing with PBS, cells were stained with a propidium iodide solution (PI; 15 µg/mL)/ RNase A (30 µg/mL) for 30 min at 37 °C. RNase was added to avoid signals caused by the binding of PI to RNA.
We first examined by flow cytometry the cell cycle profiles of HeLa cells incubated in medium containing increasing concentrations of any of (A) or (C) for 24 h.

T2 sequence (Q96GD4 whole entry): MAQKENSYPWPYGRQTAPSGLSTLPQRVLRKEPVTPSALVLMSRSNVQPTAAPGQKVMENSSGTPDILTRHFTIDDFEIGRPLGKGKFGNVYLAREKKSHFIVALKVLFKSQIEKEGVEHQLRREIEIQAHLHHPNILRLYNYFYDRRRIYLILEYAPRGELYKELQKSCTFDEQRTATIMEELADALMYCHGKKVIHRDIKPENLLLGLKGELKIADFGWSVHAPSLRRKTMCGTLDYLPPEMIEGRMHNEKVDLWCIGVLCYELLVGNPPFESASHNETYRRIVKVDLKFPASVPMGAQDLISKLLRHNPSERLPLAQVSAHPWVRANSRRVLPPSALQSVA

Row | Structure (SMILES) | IC50 (Aurora A) | selectivity for Aurora A against other kinases (Aurora A) | HH3-Ser10 phosphorylation [1] | IC50 (Aurora B) | % of cells 2<n<4 (HeLa cells; 20µM) | % of cells 2n (HeLa cells; 20µM) | % of cells 4n (HeLa cells; 20µM) | % of cells <2n (HeLa cells; 20µM) | % of cells >4n (HeLa cells; 20µM) | % of cells 2<n<4 (HeLa cells; 40µM) | % of cells 2n (HeLa cells; 40µM) | % of cells 4n (HeLa cells; 40µM) | % of cells <2n (HeLa cells; 40µM) | % of cells >4n (HeLa cells; 40µM) | % of cells 2<n<4 (HeLa cells; 100µM) | % of cells 2n (HeLa cells; 100µM) | % of cells 4n (HeLa cells; 100µM) | % of cells <2n (HeLa cells; 100µM) | % of cells >4n (HeLa cells; 100µM) | effect on DNA content / distribution of cells in the cell cycle stages (HeLa cells)
1 | CC(C)Nc1nc(-c2ccco2)nc2ccc(C#CCO)cc12 [Compound (C), 3-(2-(Furan-2-yl)-4-(isoiproipylamino)quinazolin-6-yl)prop-2-yn-l-ol] | 2.75 µM | selective inhibition of Aurora A | no effect | 3380 µM | 17.5% | 55.2% | 19.0% | 7.6% | 1.3% | 20.0% | 47.2% | 21.2% | 10.5% | 1.8% | 25.2% | 21.4% | 41.8% | 10.0% | 1.5% | increased amount of 4n DNA; also recorded: dose dependent increase in the proportion of cells with more than 2n DNA content
2 | CC(C)Nc1nc(-c2ccco2)nc2ccc(/C=C/C(C)(C)O)cc12 [Compound (A), (E)-4-(2-(Furan-2-yl)-4-(isopropylamino)quinazolin-6-yl)-2-methylbut-3-en-2-ol] | 1.93 µM | selective inhibition of Aurora A | no effect | 16.2 µM | 17.6% | 58.5% | 19.2% | 4.4% | 0.7% | 17.7% | 58.5% | 19.9% | 3.8% | 3.8% | 15.5% | 48.4% | 20.8% | 13.8% | 2.1% | did not alter the distribution of cells in the different cell cycle stages
